The subject of one assay is HCV. The settings on record: Anggakusuma et al., 2013, read-out: EC50 inhibiting binding and fusion; cited from earlier work.
The subject of assay [1] is virus (not named) in Huh7 cells. As to the kind of experiment: Cytopathic effect assay. The settings on record: for inhibition at 14 µM: read-out: average inhibition (%) at 14 μM; for inhibition at 29 µM: read-out: average inhibition (%) at 29 μM; for average inhibition (%) at 14 μM / average inhibition (%) at 29 μM: virus added directly after compound. A general note: Damage to the host cells serves as the signal in cytopathic effect assays.

The test system of assay [2] is enveloped viruses, including HIV, IAV, VSV, and SARS. The note with it: VSV (Harada, 2005), SARS (Cinatl et al., 2003); cited from earlier work.
[3] abbreviates: Huh7 cells, cytopathic effect, 7 days at 33° C.

What is called EC50 is the concentration giving half of the maximal effect. As usually defined, the EC30 is the point of the concentration-response curve where the effect stands at 30%. Low values mean an effect from little substance, high ones a need for much substance. The inhibition is the percentage by which the read-out fell short of the control.

Consider `COc1cc(/C=C/C(=O)CC(=O)/C=C/c2ccc(O)c(OC)c2)ccc1O` [Curcumin], for which, in the assay with HCV, the EC50 is 8.46 µM.

On to `CCCCCCCCCCCCCC(=O)NCCC[N+](C)(C)Cc1ccccc1` [ES001071, myristamido-propyl-dimethyl-benzyl-ammonium chloride, reference compound], for which, in assay [1] (setting [3]), the “EC30” value was determined as 22.7 µM. In assay [1] (Huh-7, 168 h), the inhibition at 14 µM was 8.7% and the inhibition at 29 µM was found to be 35.9%.

Consider `CCCCCCCCCCCCCC(=O)NCCC[N+](C)(C)Cc1ccccc1.C[C@H](O)C(=O)[O-]` [ES001391, Myramistin (L)-lactate], for which, in assay [1] (Huh7 cells, 7 days at 33° C.), the “average inhibition (%) at 14 μM” value is given as 0% and the “average inhibition (%) at 29 μM” value is recorded as 18.5%. The “EC30” value in assay [1] (setting [3]) turned out to be 45.1 µM.

On to `CCCCCCCC(=O)[O-].CCCCCCCCCCCCCC(=O)NCCC[N+](C)(C)Cc1ccccc1` [ES001639, Myramistin capiylate], for which, in assay [1] (Huh7 cells, 7 days at 33° C.), the “average inhibition (%) at 14 μM” value worked out at 17.9% and the “average inhibition (%) at 29 μM” value came to 42.1%. The “EC30” value in assay [1] (setting [3]) was determined as 22.3 µM.

For `CCCCCCCCCCCCCC(=O)NCCC[N+](C)(C)Cc1ccccc1.O=C([O-])CO` [ES001652, Myramistin glycolate], in assay [1] (Huh7 cells, 7 days at 33° C.), the “average inhibition (%) at 14 μM” value is reported as 17.0% and the “average inhibition (%) at 29 μM” value turned out to be 36.2%. Besides, the “EC30” value in assay [1] (setting [3]) was determined as 23.8 µM.

On to `CCCCCCCCCCCCCC(=O)NCCC[N+](C)(C)Cc1ccc(C)cc1` [ES001706, N-(3-(dimethyl 4-methylbenzylammonio)propyl)myristamide chloride], for which, in assay [1] (Huh-7, 168 h), the inhibition at 14 µM came to 23.8% and the inhibition at 29 µM was determined as 34.1%.

In the case of `CCCCCCCCCCCCCC(=O)NCCC[N+](C)(C)Cc1ccc(C#N)cc1` [ES001713, N-(3-(dimethyl 4-cyanobenzylammonio)propyl)myristamide chloride], in assay [1] (setting [3]), the “EC30” value is 11.8 µM. In assay [1] (Huh-7, 168 h), the EC50 was 16.7 µM, the inhibition at 14 µM was determined as 38.3% and the inhibition at 29 µM was determined as 79.4%.

In the case of `CCCCCCCCCCCCCC(=O)NCCC[N+](C)(C)CCc1ccccc1.[Cl-]` [ES001726, N-(3-(dimethylethylenephenylammonio)propyl)myristamide chloride], in assay [1] (Huh7 cells, 7 days at 33° C.), the “average inhibition (%) at 14 μM” value came to 26.4% and the “average inhibition (%) at 29 μM” value is on record as 14.9%. For the same compound, in assay [1] (setting [3]), the “EC30” value amounted to 15.7 µM.

As to `CC1(C)[C@@H](O[C@H]2O[C@H](C(=O)O)[C@@H](O)[C@H](O)[C@H]2O[C@@H]2O[C@H](C(=O)O)[C@@H](O)[C@H](O)[C@H]2O)CC[C@]2(C)[C@H]3C(=O)C=C4[C@@H]5C[C@@](C)(C(=O)O)CC[C@]5(C)CC[C@@]4(C)[C@]3(C)CC[C@@H]12` [Glycyrrhizin], in assay [2], the “activity against enveloped viruses” value is listed as “weakly active”.

For Myramistin citrate [ES001637], in assay [1] (Huh7 cells, 7 days at 33° C.), the “average inhibition (%) at 14 μM” value turned out to be 19.5% and the “average inhibition (%) at 29 μM” value was 36.8%. In addition, in assay [1] (setting [3]), the “EC30” value was found to be 21.1 µM.

Turning to “N-(3-(dimethyl 3-methylenethiophenyl ammonio)propyl)myristamide chloride [ES001716]”, in assay [1] (Huh7 cells, 7 days at 33° C.), the “average inhibition (%) at 14 μM” value is given as 13.3% and the “average inhibition (%) at 29 μM” value was 51.8%. In assay [1] (setting [3]), the “EC30” value amounted to 21.1 µM and the EC50 came to 28.1 µM.

“N-(3-(dimethyl 4-methylenenaphthyl ammonio)propyl)myristamide chloride [ES001715]”: in assay [1] (Huh7 cells, 7 days at 33° C.), the “average inhibition (%) at 14 μM” value is given as 45.4% and the “average inhibition (%) at 29 μM” value was determined as 0%. Further, the “EC30” value in assay [1] (setting [3]) turned out to be 10.0 µM.

Source of the values: patent US20230118459A1, “ANTIVIRAL TREATMENT” (priority 2020, published 2023).
